From patent publication US7026344B2, “Treating sickle cell disease” (priority 2000, dated 2006)

Tests used:
[1] = test system: fetal hemoglobin production in primary erythroid progenitors from Hb SS patients; settings: HU 100 μM, Hb SS patients of the HU cohort (Yang et al.); cited from earlier work
[2] = test system: primary erythroid progenitors (BFU-E colonies) from Hb SS patients; settings: HU 100 μM, Hb SS patients of the HU cohort (Yang et al.); cited from earlier work
[3] = test system: erythroid progenitors (BFU-E colonies) from normal donors; assay: BFU-E colony growth in methylcellulose culture, normal donors; type: cell-based, human
Procedure: (§1) BFU-E Colony Growth. Mononuclear cells were isolated from the peripheral blood of each patient studied by density gradient centrifugation using Histapaque-1077 (Sigma). Erythroid progenitors were obtained in methylcellulose culture. ZL was added on day 0 at 25, 50, 75, or 100 μM concentrations for 13–14 days at which time the number of BFU-E colonies were counted on an inverted microscope and harvested for hemoglobin determinations.
The cytotoxic effect of HU as been proposed as a basic mechanism involved in hemoglobin F induction. In the absence of this characteristic for ZL, whether γ gene expression would be, induced in erythroid progenitors obtained from normal donors was tested. Utilizing the same protocol, BFU-E colonies from normal donors wee analyzed in the presence of ZL at 0 to 100 μM concentrations. In normal erythroid progenitors, a decrease in BFU-E colony number from 94±30.6 to 10.1±2.4 (FIG. 3A) and an increase in hemoglobin F from 1.4±0.05% to […] (FIG. 3B) was observed. This pattern was similar to that obtained for Hb SS progenitors. Of note is the lower average BFU-E colony number for hemoglobin A progenitors as compared with hemoglobin S. This probably reflects the absence of hemolysis and increased RBC production in normals as compared to sickle cell patients. This represents a 9.3-fold decrease and a 4.3-fold increase in BFU-E and hemoglobin F, respectively.

[4] = test system: fetal hemoglobin production in normal erythroid progenitors; assay: Hemoglobin F determination in erythroid progenitors, normal donors; type: cell-based, human
Procedure: as §1
Hemoglobin F determination. The erythroid progenitors were collected, washed in PBS then lysed at room temperature in 200 μl of water. The supernatant was split into two tubes, one for total hemoglobin determination and one for hemoglobin F determination. In brief, IgG (10 μl), 1.2 N NaOH (7 μl) and saturated (NH4)2SO4 (70 μl) were added to the hemoglobin F sample. The denatured hemoglobin was pelleted and the supernatant containing hemoglobin F was mixed with 500 μl of tetramethyl benzidine and 500 μl of H2O2 at room temperature then quantitated on a spectrophotometer at 600 nm. The percentage of fetal hemoglobin to total hemoglobin was determined.
The cytotoxic effect of HU as been proposed as a basic mechanism involved in hemoglobin F induction. […] Utilizing the same protocol, BFU-E colonies from normal donors wee analyzed in the presence of ZL at 0 to 100 μM concentrations. […]

Row | SMILES | HbF [1] [%] | BFU-E [2] | fold decrease in BFU-E ([3]; ZL 0 vs 100 μM) [fold] | BFU-E colony number ([3]; ZL 100 μM) | fold increase in hemoglobin F ([4]; ZL 0 vs 100 μM) [fold] | hemoglobin F ([4]; ZL 100 μM) [%]
1 | NC(=O)NO [HU, Hydroxyurea] | 19.4 | 7.2 |  |  |  | 
2 | CC(c1cc2ccccc2s1)N(O)C(N)=O (racemic) [ZL, (±)-1-(1-Benzo[b]thien-2-ylethyl)-1-hydroxyurea] |  |  | 9.3 | 10.1±2.4 | 4.3 | 6.0
